Assay results published in PMC11258689, “A Snake Venom Peptide and Its Derivatives Prevent Aβ42 Aggregation and Eliminate Toxic Aβ42 Aggregates In Vitro” (ACS Chemical Neuroscience, 2024).
Non-standard residues stand in square brackets, D forms with d. Residues, ends and D or L forms follow the SMILES beside them.

What was measured:
[1] = tested on: Aβ42 oligomers; experiment: QIAD assay (Aβ42 aggregate size distribution, oligomer elimination); type: biochemical; settings: 20 μM peptide added to 80 μM Aβ42 (pre-incubated 2 h), 30 min; density gradient, RP-HPLC UV 214 nm; n = 3
Description: In order to evaluate the efficacy of the peptides in eliminating Aβ42 oligomers, QIAD assays were performed.[39] Briefly, lyophilized Aβ42 (80 μM) was incubated for 2 h in sodium phosphate buffer for Aβ42 oligomerization. Then, each peptide (20 μM) was added to the Aβ42 solution and incubated for 30 min. Finally, samples were added on top of an iodixanol density gradient (5–50% (w/v) (OptiPrep, Sigma-Aldrich, Darmstadt, Germany) and centrifuged for 3 h at 4 °C and 259,000 x g (Optima TL-100, Beckman Coulter, Brea, CA, USA). For the sample analysis, 14 fractions (140 μL each) were collected from top to bottom. The top fractions, named fractions 1–2, contained Aβ42-monomers; fractions 4–6 contained the Aβ42-oligomers, which are of special interest; and the bottom fractions 11–14 contained high molecular weight of aggregated Aβ42. Each density gradient fraction was analyzed by Reversed Phase Liquid Chromatography. For this an Agilent 1260 Infinity II (Santa Clara, California, USA) system was equipped with an Agilent Zorbax SB-300 C-8 5 μm, 4.6 × 250 mm Column (Santa Clara, California, USA) and a multi-wavelength detector set to acquire the UV absorbance at 214 nm. H2O + 0.1% trifluoroacetic acid (AppliChem, Darmstadt, Germany) and acetonitrile (Roth, Karlsruhe, Germany) + 0.1% trifluoroacetic acid were used as eluent A and B, respectively. The acquisition method consisted of an initial isocratic step at 15% B, followed by a gradient from 15% B to 45% B in 10 min and another isocratic step at 45% B. The column temperature was set to 80 °C for the entire analysis. This method ensured full separation of the iodixanol density gradient medium and Aβ42 in all fractions. Aβ42 peaks were analyzed and integrated by the Agilent OpenLab 2.5 software. All measurements were performed in triplicate (n = 3), and data are presented as mean ± SM.

[2] = tested on: Aβ42 aggregates; experiment: sFIDA assay of Aβ42 aggregate elimination; type: biochemical; settings: n = 3; for sFIDA signal reduction compared with the control: 50 nM peptide, 1 nM Aβ42 aggregates, overnight, room temperature, PBS, TIRFM pixel count
Description: To determine the influence of peptides on Aβ42 aggregates, an sFIDA assay was performed. The principle was previously described.[29] Therefore, we used pretreated 384 glass bottom microtiterplates (Sensoplate plus, Greiner Bio-One GmbH, Frickenhausen, Germany) to immobilize the capture-antibody Nab228 (Sigma-Aldrich, St. Louis, Missouri, USA) in a concentration of 2.5 μg/mL in 0.1 M carbonate buffer (Carl Roth, Karlsruhe, Germany). After an overnight incubation at 4 °C, the plate was washed five times with TBS and blocked with 80 μL of a 0.5% BSA solution in TBS with 0.03% ProClin 300 (Sigma-Aldrich, St. Louis, Mo, USA) for 1.5 h at room temperature.
The influence of 50 nM CDPs on 1 nM Aβ42 aggregates (prepared according to Ref ([70])) in PBS was determined by incubating them overnight at room temperature and 600 rpm. As a control, the same Aβ42 aggregates concentration was incubated without additions of peptides; instead, the buffer was added to contain the same end concentrations. The plate was washed as previously described, and 20 μL each of the peptide solution and a serial dilution of Aβ42 aggregates standards in PBS were added and incubated for 2 h at room temperature.
Afterward, 20 μL of 0.625 μg/mL IC-16 CF633 (Heinrich Heine Universität Düsseldorf, Germany) in TBS with 0.1% BSA was added to each well and incubated for 1 h at room temperature. This red fluorescently labeled detection antibody was labeled with CF633 succinimidyl ester (Sigma-Aldrich, St. Louis, Missouri, USA) after the manufacturer’s protocol. After a washing step to remove the redundant antibodies, 80 μL of TBS containing 0.03% Proclin were added.
By using a total internal reflection microscopy (TIRFM) (Leica Camera AG, Wetzlar, Germany), measurement (excitation: 635 nm, emission filter: 705/22 nm) was carried out with an oil immersion objective in 100× magnifications as previously described by Kass et al. 2022, and for each well, 25 of 14-bit grayscale images were measured with a size of 1000 × 1000 pixel each. […]

[3] = tested on: HEK293 cells; experiment: MTT cell viability assay, HEK293; type: cell-based, human; settings: 20 and 40 μM peptide, overnight, n = 3
Description: (§1) The cell viability assay was performed using the reduction of [3-(4,5-dimethylthiazol-2-yl)-2,5-diphenyl tetrazolium bromide-MTT] (Merck, Darmstadt, Germany) to investigate the cytotoxicity of the CDPs against SH-SY5Y (human neuroblastoma) and HEK293 (human embryonic kidney) cells. Both cell lines were purchased from the Leibniz Institute DSMZ-German collection of microorganisms and cell cultures GmbH. HEK293 cells were cultivated in Dulbecco’s modified Eagle’s medium high glucose (Merck, Darmstadt, Germany) containing 2% antibiotic solution of 10 000 units Penicillin, 10 mg streptomycin/ml (Merck, Darmstadt, Germany), and 10% fetal bovine serum (Merck, Darmstadt, Germany) at 37 °C with 5% CO2. […]
(§2) According to the manufacturer’s instructions, cell viability was measured using the Cell Proliferation Kit I (Roche, Basel, Switzerland). The absorbance of the formazan product was determined by measuring the absorption at 570 nm and subtracted from the absorbance at 660 nm.
(§3) The SH-SY5Y cells with a density of 10 000 cells (for HEK293 5000 cells) per well (total volume of 100 μL) were added to each well of a 96-well tissue culture plate (VWR North American) and incubated overnight at 37 °C with 5% CO2. […] Finally, the absorbance was measured at 570 and 660 nm using a CLARIO star plate reader (BMG labtech, Ortenberg, Germany), and the cell viability was calculated using eq 2: [drawing 2] […]

[4] = tested on: SH-SY5Y cells; experiment: MTT cell viability assay, SH-SY5Y; type: cell-based, human; settings: 20 and 40 μM peptide, overnight, n = 3
Description: as §1, §2, §3

[5] = molecular target: T1, Aβ42 (Homo sapiens, UniProt P05067); experiment: Thioflavin T (ThT) assay of Aβ42 aggregation; type: biochemical; settings: 28 μM peptide, 10 μM Aβ42, 5 μM ThT, 24 h, room temperature; mean of n = 3
T1 construct: purchased Bachem, Bubendorf, Switzerland
Description: To evaluate the ability of the peptides to prevent Aβ42 aggregation, a ThT assay was performed. Aβ42 (10 μM), ThT (5 μM), and the peptides (28 μM) were incubated in 96-well plates for 24 h at room temperature in a plate reader (Clariostar, BMG Labtech, Ortenberg, Germany). During this time, the ThT fluorescence was measured every 6 minutes with an excitation of 440 nm and emission of 490 nm. The data were corrected considering the blank wells (without Aβ42 and the peptides). None of the peptides interact with ThT alone or has autofluorescence properties. All measurements were performed in triplicate (n = 3), and data are presented as mean ± SM.
Different concentrations were titrated to investigate CDP-1 and -2 dose dependency on the Aβ42 aggregate formation, and a ThT assay was performed as described before. The effect of 0, 0.5, 1, 3, 6, 13, and 28 μM peptides was tested against 10 μM Aβ42 over 24 h. All experiments were performed in triplicate (n = 3), and data are presented as mean ± SM.

T1 sequence (P05067 672-713 limits assumed): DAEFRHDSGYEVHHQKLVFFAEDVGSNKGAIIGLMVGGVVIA

COC(=O)[C@@H](CCCCN)NC(=O)[C@@H](CCSC)NC(=O)[C@@H](CC(=O)O)NC(=O)[C@@H](CS)NC(=O)[C@@H](CCCNC(=N)N)NC(=O)[C@@H](Cc1c[nH]c2ccccc12)NC(=O)[C@@H](CCCNC(=N)N)NC(=O)[C@@H](Cc1c[nH]c2ccccc12)NC(=O)[C@@H](CCCCN)NC(=O)[C@@H](CS)NC(=O)[C@@H](CS)NC(=O)[C@@H](CCCCN)NC(=O)[C@@H](CCCCN)NC(C)=O [CDP-1D] (Ac-[dK][dK][dC][dC][dK][dW][dR][dW][dR][dC][dD][dM][dK]-OMe; N-terminus and C-terminus assumed)
Aβ42 in QIAD fraction 6 (oligomers) [1]: significant reduction | sFIDA effect on Aβ42 aggregates ([2]; Aβ42 aggregates treated with peptide, TIRFM): decrease in aggregates

COC(=O)[C@H](CCCCN)NC(=O)[C@H](CCCCN)NC(=O)[C@H](CO)NC(=O)[C@H](CO)NC(=O)[C@H](CCCCN)NC(=O)[C@H](Cc1c[nH]c2ccccc12)NC(=O)[C@H](CCCNC(=N)N)NC(=O)[C@H](Cc1c[nH]c2ccccc12)NC(=O)[C@H](CCCNC(=N)N)NC(=O)[C@H](CO)NC(=O)[C@H](CC(=O)O)NC(=O)[C@H](CCSC)NC(=O)[C@H](CCCCN)NC(C)=O [CDP-2] (Ac-KMDSRWRWKSSKK-OMe)
Aβ42 in QIAD fractions 4–5 (oligomers) [1]: not detected | cytotoxicity in HEK293 cells [3]: nontoxic | cytotoxicity in SH-SY5Y cells [4]: nontoxic | sFIDA signal reduction compared with the control [2]: 95.2% | ThT signal / Aβ42 aggregation compared to Aβ42 alone [5]: four times smaller

COC(=O)[C@H](CCCCN)NC(=O)[C@H](CCCCN)NC(=O)[C@H](CS)NC(=O)[C@H](CS)NC(=O)[C@H](CCCCN)NC(=O)[C@H](Cc1c[nH]c2ccccc12)NC(=O)[C@H](CCCNC(=N)N)NC(=O)[C@H](Cc1c[nH]c2ccccc12)NC(=O)[C@H](CCCNC(=N)N)NC(=O)[C@H](CS)NC(=O)[C@H](CC(=O)O)NC(=O)[C@H](CCSC)NC(=O)[C@H](CCCCN)NC(C)=O [CDP-1] (Ac-KMDCRWRWKCCKK-OMe; C-terminus assumed)
Aβ42 in QIAD fractions 4–5 (oligomers) [1]: not detected | cytotoxicity in HEK293 cells [3]: nontoxic | cytotoxicity in SH-SY5Y cells [4]: nontoxic | sFIDA signal reduction compared with the control [2]: 61.1% | ThT signal / Aβ42 aggregation compared to Aβ42 alone [5]: no Aβ42 aggregation was determined
